Assay results reported in patent US6689792B2, “Antipsychotic indolyl derivatives” (Wyeth, priority 1998, dated 2004).
Counter-ions that a name gives are not always drawn.

Columns and labels:
human 5HT1A receptor = biological target: T1, human 5HT1A receptor (Homo sapiens, UniProt P08908); experiment: [3H] 8-OH-DPAT displacement binding in CHO cells transfected with human 5HT1A receptor; conditions: [3H] 8-OH-DPAT 1.5 nM
T1 construct: expressed in transfected cells
T1 sequence (P08908 1-422): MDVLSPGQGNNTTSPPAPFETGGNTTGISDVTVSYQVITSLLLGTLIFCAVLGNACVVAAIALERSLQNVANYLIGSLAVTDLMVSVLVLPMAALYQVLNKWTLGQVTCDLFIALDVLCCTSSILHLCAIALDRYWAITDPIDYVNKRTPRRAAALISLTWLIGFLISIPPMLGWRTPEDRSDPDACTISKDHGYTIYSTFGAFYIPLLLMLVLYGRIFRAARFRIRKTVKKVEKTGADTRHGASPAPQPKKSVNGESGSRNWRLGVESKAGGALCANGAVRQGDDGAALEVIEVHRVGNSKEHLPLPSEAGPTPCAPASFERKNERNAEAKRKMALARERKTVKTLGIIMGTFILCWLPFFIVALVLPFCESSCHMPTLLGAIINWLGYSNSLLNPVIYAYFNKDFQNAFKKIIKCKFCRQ
Method: 8-OH-DPAT binding in CHO cells stabily transfected with human 5HT1A receptor. Stabily transfected CHO cells are grown in DMEM containing 10% heat inactivated FBS and non-essential amino acids. Cells are scraped off the plate, transferred to centrifuge tubes, and washed twice by centrifugation (2000 rpm for 10 min., 4° C.) in buffer (50 mM Tris pH 7.5). The resulting pellets are aliquoted and placed at −80° C. On the day of assay, the cells are thawed on ice and resuspended in buffer. The binding assay is performed in a 96 well microtiter plate in a total volume of 250 μL. […] Following a 30 minute incubation at room temperature, the reaction is terminated by the addition of ice cold buffer and rapid filtration through a GF/B filter presoaked for 30 minutes in 0.5% PEI.

serotonin transporter = biological target: T2, serotonin transporter (Rattus norvegicus, UniProt P31652); experiment: 3H-Paroxetine binding to rat frontal cortical membranes; conditions: read-out: SSRi % Inhibition (rat brain) at 0.1 μM
T2 construct: frontal cortical membranes prepared from male S.D. rats; from tissue; host or cells: frontal cortical membranes of male Sprague-Dawley rats
T2 sequence (P31652 whole entry): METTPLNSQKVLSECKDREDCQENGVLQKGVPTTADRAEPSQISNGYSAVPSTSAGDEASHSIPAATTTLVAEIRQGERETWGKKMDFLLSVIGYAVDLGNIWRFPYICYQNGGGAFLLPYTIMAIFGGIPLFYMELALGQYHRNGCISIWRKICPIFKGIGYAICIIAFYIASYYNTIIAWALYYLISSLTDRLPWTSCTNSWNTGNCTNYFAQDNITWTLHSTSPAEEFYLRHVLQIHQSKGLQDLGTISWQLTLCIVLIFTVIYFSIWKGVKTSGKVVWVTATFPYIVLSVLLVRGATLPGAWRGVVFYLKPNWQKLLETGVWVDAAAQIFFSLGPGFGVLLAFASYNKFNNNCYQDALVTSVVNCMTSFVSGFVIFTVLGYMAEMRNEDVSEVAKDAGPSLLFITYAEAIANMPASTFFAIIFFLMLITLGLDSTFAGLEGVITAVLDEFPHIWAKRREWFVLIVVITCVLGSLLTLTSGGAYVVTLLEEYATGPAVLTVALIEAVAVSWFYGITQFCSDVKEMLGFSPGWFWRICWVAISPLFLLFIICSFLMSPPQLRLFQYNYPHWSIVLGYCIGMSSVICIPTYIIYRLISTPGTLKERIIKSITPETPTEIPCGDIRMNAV
Method: ^3H-Paroxetine binding to assess affinity of drugs for the serotonin transporter
A protocol similar to that used by Cheetham et al. (Neuropharmacol. 32:737, 1993) was used to determine the affinity of compounds for the serotonin transporter. Briefly, frontal cortical membranes prepared from male S.D. rats were incubated with ^3H-paroxetine (0.1 nM) for 60 min at 25° C. All tubes also contained either vehicle, test compound (one to eight concentrations), or a saturating concentration of fluoxetine (10 μM) to define […]. All reactions are terminated by the addition of ice cold Tris buffer followed by rapid filtration using a Tom Tech filtration device to separate bound from free ^3H-paroxetine. Bound radioactivity was quantitated using a Wallac 1205 Beta Plate® counter. Results achieved are expressed below as % inhibition of Paroxetine binding at a given concentration.

[1] = biological target: T3, human dopamine D2 receptor (Homo sapiens, UniProt P14416); experiment: [3H]-Spiperone displacement binding in CHO cells transfected with human dopamine D2 receptor; conditions: [3H]-Spiperone 0.5 nM, CHO cell membranes
T3 construct: expressed in transfected cells
T3 sequence (P14416 whole entry): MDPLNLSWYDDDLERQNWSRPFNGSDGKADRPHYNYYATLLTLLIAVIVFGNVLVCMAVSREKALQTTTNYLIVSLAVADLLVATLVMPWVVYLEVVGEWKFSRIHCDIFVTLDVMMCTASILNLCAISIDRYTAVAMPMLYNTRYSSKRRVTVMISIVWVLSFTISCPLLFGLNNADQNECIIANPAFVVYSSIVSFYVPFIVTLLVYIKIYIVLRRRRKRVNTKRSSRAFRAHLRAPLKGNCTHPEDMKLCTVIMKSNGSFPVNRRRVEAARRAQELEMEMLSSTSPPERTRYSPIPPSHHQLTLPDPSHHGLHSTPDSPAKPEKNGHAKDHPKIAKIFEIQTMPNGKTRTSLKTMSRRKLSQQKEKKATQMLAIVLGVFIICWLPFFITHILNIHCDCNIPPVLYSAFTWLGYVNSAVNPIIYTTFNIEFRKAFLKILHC
Method: CHO cells expressing the human dopamine D2 receptor were cultured in suspension by expansion (every 3-4 days) in a serum free media to provide approximately 7.5×10^5 cells/ml. The cells were harvested by centrifugation (900×g for 10 min.), resuspended in half volume of 1×dulbecco PBS solution at pH 7.4, and after a further recentrifugation, the cell pellet was resuspended in 50 mM Tris.HCl (pH 7.4) containing 1.5 mM CaCl2, 5.0 mM EDTA, 5.0 mM KCl, 120 mM NaCl, 1.0 mM PMSF and 1.0 mg % leupeptin. The cells were homogenized, centrifuged at 40,000×g for 30 minutes and resuspended in fresh buffer (10 ml), and the process repeated twice. […] The binding assay is performed in a 96 well microtiter plate. 100 μl of buffer is added to the wells, and those receiving a displacer for nonspecific binding (NSB) assessment or test compounds receive 80 μl of incubation buffer. […] The reaction is initiated by the addition of 80 μl of the tissue membrane, and after 120 minutes at room temperature the wells are harvested using a Brandell® Harvester onto glass fiber filter presoaked in 0.1% polyethylimine.

| SMILES | melting point | Ki (human 5HT1A receptor) | inhibition at 0.1 µM (serotonin transporter) | Ki [1] |
| --- | --- | --- | --- | --- |
| OC(COc1cccc2[nH]ccc12)CN1CCN(c2cccc3[nH]ccc23)CC1 (stereo not shown) (as salt: fumaric acid salt) [Example 1, 1-(1H-Indol-4-yloxy)-3-[4-(1H-indol-4-yl)piperazin-1-yl]-propan-2-ol] | 147 to 150 °C |  |  |  |
| OC(COc1ccccc1Cl)CN1CCN(c2cccc3[nH]ccc23)CC1 (stereo not shown) (as salt: fumaric acid salt) [Example 5, 1-(2-Chloro-phenoxy)-3-[4-(1H-indol-4-yl)piperazin-1-yl]-propan-2-ol] | 207 °C |  |  |  |
| OC(COc1ccccc1-c1ccccc1)CN1CCN(c2cccc3[nH]ccc23)CC1 (stereo not shown) (as salt: fumaric acid salt) [Example 8, 1-(Biphenyl-2-yloxy)-3-[4-(1H-indol-4-yl)piperazin-1-yl]-propan-2-ol] | 214 to 215 °C |  |  |  |
| OC(COc1cccc2[nH]ccc12)CN1CCN(c2cccc3[nH]ccc23)CC1 (stereo not shown) [Example 1, 1-(1H-Indol-4-yloxy)-3-[4-(1H-indol-4-yl)piperazin-1-yl]-propan-2-ol] |  | 6 nM | 32% |  |
| COc1ccc(OCC(O)CN2CCN(c3cccc4[nH]ccc34)CC2)cc1 (stereo not shown) [Example 3, 1-[4-(1H-Indol-4-yl)-piperazin-1-yl]-3-(4-methoxy-phenoxy)-propan-2-ol] |  | 1.8 nM | 17% |  |
| OC(COc1ccccc1Cl)CN1CCN(c2cccc3[nH]ccc23)CC1 (stereo not shown) [Example 5, 1-(2-Chloro-phenoxy)-3-[4-(1H-indol-4-yl)piperazin-1-yl]-propan-2-ol] |  | 12.1 nM | 11% | 31.9 nM |
| NC(=O)c1cc2c(OCC(O)CN3CCN(c4cccc5[nH]ccc45)CC3)cccc2[nH]1 (stereo not shown) [Example 7, 4 {2-Hydroxy-3-[4-(1H-indol-4-yl)-piperazin-1-yl]propoxy}-1H-indole-2-carboxylic acid amide] |  | 7.2 nM | 3% |  |
| OC(COc1ccccc1-c1ccccc1)CN1CCN(c2cccc3[nH]ccc23)CC1 (stereo not shown) [Example 8, 1-(Biphenyl-2-yloxy)-3-[4-(1H-indol-4-yl)piperazin-1-yl]-propan-2-ol] |  | 4.5 nM | 0% |  |

Now from value to molecule:

| melting point | Ki (human 5HT1A receptor) | inhibition at 0.1 µM (serotonin transporter) | Ki [1] | SMILES |
| --- | --- | --- | --- | --- |
| 248 °C |  |  |  | O=[N+]([O-])c1ccc(OCC(O)CN2CCN(c3cccc4[nH]ccc34)CC2)cc1 (stereo not shown) (as salt: HCl) [Example 4, 1-[4-(1H-Indol-4-yl)-piperazin-1-yl]-3-(4-nitro-phenoxy)-propan-2-ol] |
| 224 to 225 °C |  |  |  | OC(COc1ccc(Cl)cc1)CN1CCN(c2cccc3[nH]ccc23)CC1 (stereo not shown) (as salt: fumaric acid salt) [Example 2, 1-(4-Chloro-phenoxy)-3-[4-(1H-indol-4-yl)piperazin-1-yl]-propan-2-ol] |
| 234 to 235 °C |  |  |  | OC(COc1ccc(F)cc1)CN1CCN(c2cccc3[nH]ccc23)CC1 (stereo not shown) (as salt: fumaric acid salt) [Example 6, 1-(4-Fluoro-phenoxy)-3-[4-(1H-indol-4-yl)piperazin-1-yl]-propan-2-ol] |
|  | 7.6 nM | 13% | 33.5 nM | OC(COc1ccc(Cl)cc1)CN1CCN(c2cccc3[nH]ccc23)CC1 (stereo not shown) [Example 2, 1-(4-Chloro-phenoxy)-3-[4-(1H-indol-4-yl)piperazin-1-yl]-propan-2-ol] |
|  | 8.8 nM | 15% |  | O=[N+]([O-])c1ccc(OCC(O)CN2CCN(c3cccc4[nH]ccc34)CC2)cc1 (stereo not shown) [Example 4, 1-[4-(1H-Indol-4-yl)-piperazin-1-yl]-3-(4-nitro-phenoxy)-propan-2-ol] |
|  | 10.4 nM | 0% | 10.4 nM | OC(COc1ccc(F)cc1)CN1CCN(c2cccc3[nH]ccc23)CC1 (stereo not shown) [Example 6, 1-(4-Fluoro-phenoxy)-3-[4-(1H-indol-4-yl)piperazin-1-yl]-propan-2-ol] |
